Measured values published in PMC5145181, “Structural Mapping and Functional Characterization of Zebrafish Class B G-Protein Coupled Receptor (GPCR) with Dual Ligand Selectivity towards GLP-1 and Glucagon” (PLoS ONE, 2016).

Tested on: zfGPCR (dual zfGLP-1R/GCGR)
Assay: Intracellular cAMP in COS-7 cells expressing recombinant zfGPCR
Format: cell-based, zebrafish (Danio rerio)
Settings: 20 min at 37°C, pH 7.4, 1 mM 1-methyl-3-isobutylxanthine, enzyme immunoassay; n = 9 zfGLP-1, n = 5 hGLP-1, zf glucagon, h glucagon, n = 3 exendin-4, n = 6 zfGLP-2. 95% CI: zfGLP-1 0.24–0.80; hGLP-1 0.65–1.63; zf glucagon 0.20–2.9; h glucagon 0.18–1.63; exendin-4 0.07–0.46; zfGLP-2 16.8–72.6
Protocol: The ability of different peptides to stimulate the increase in intracellular cAMP levels following their binding to the recombinant zfGPCR transiently expressed in COS-7 cells was measured using methods that we developed for non-mammalian G-protein coupled receptors. In brief, COS-7 cells were grown to confluence in 100-mm plates at 37°C and transfected with the pcDNA3 vector containing the recombinant zfGPCR using the TransFast transfection reagent (Promega, Madison, WI) at a […] of plasmid DNA (25 ug) to transfection reagent (75 μL). After 24 h cells were trypsynized and transferred to 24-well plates (Biocore, Becton-Dickinson, Franklin Lakes, NJ). Peptides (pM-μM) were added 24–48 h later. Cells were equilibrated prior to the addition of peptides with the assay buffer (DMEM, 0.5% BSA, 20mM HEPES, 1mM 1-methyl-3-isobutylxanthine, 0.1mM phenylmethylsulfonyl fluoride, pH 7.4) for 20 min at 37°C. Each peptide concentration was added in triplicate wells for 20 min at 37°C. cAMP dose-response curves for each tested peptide were obtained in a single 24-well plate. In all experiments, forskolin (100 nM) (Sigma-Aldrich, St.Louis, MO) was added as a positive control, also in triplicate wells, in the same 24-well plate as the tested peptide. After incubation, the media was removed and cells were lysed by the addition of cold ethanol (1 mL per well). Cell debris was pelleted by centrifugation (10,000 g) for 10-min, and supernatants were dried using a vacuum concentrator. Samples were resuspended in an assay buffer provided by the manufacturer and cAMP levels were quantified by the enzyme immunoassay kit (Cayman Chemicals, Ann Arbor, MI) according to the manufacturer’s instructions. The basal concentration of cAMP (in the absence of peptides) was taken as 1.00, and was in the range of 9–16 pmol/well. Results are presented as a fold-increase over basal.
Results were plotted by the Origin 9 software (OriginLab), and EC50 values were calculated by Prism 4 software as described below.
Results from the functional experiments with recombinant zfGPCR transiently expressed in COS-7 cells were analyzed by the Prism 4 software using a four-parameter logistic sigmoidal curve fit model. Data points represent mean +/- SEM.
They are shown together with the 95% confidence intervals (CIs).
Comparison of EC50 values calculated from the zfGLP-1 cAMP dose-response curve with the EC50 calculated from the cAMP dose-response curves for each of the tested peptides were performed by the F-test from the Prism 4 software which compares the fitted mid-point (EC50) from the data sets of the two dose-response curves under comparison. Conditions of analysis were as follows: (i) in the normalization step y = 0% was set to be 1 (the basal cAMP concentration taken as 1); y = 100% was set to be the largest value in each data set; (ii) constrained curve-fit parameters were set to be equal to 0.00 on the bottom, 100 on top; (iii) EC50 was not constrained; (iv) the selected option in the non-linear regression curve fit was intended on finding out whether the best-fit of a selected parameter (EC50) differs between two sets.

For “exendin-4: peptide exclusively found in the saliva of a lizard; agonist of GLP-1R; purchased from Bachem”, the EC50 was 0.18 nM.
